PubChem BioAssay (NCI)
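A five-concentration, 48-hour dose response in 96-well plates underlies each endpoint, interpolated linearly between surrounding concentrations. GI50 marks 50% less growth. At the TGI there is no net growth.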

How the values were obtained:
Assay in all cases: DTP human tumour cell line panel, 48 h
[1] = tested on: A498 renal
[2] = tested on: A549 NSCLC
[3] = tested on: ACHN renal
[4] = tested on: BT-549 breast
[5] = tested on: CCRF-CEM leukemia
[6] = tested on: COLO 205 colon
[7] = tested on: DU-145 prostate
[8] = tested on: EKVX NSCLC
[9] = tested on: HCC-2998 colon
[10] = tested on: HCT-116 colon
[11] = tested on: HCT-15 colon
[12] = tested on: HL-60(TB) leukemia
[13] = tested on: HOP-62 NSCLC
[14] = tested on: HOP-92 NSCLC
[15] = tested on: HT29 colon
[16] = tested on: IGROV1 ovarian
[17] = tested on: KM12 colon
[18] = tested on: M14 melanoma
[19] = tested on: MALME-3M melanoma
[20] = tested on: MCF7 breast
[21] = tested on: MDA-MB-231 breast
[22] = tested on: MOLT-4 leukemia
[23] = tested on: NCI-H226 lung
[24] = tested on: NCI-H460 lung
[25] = tested on: NCI-H522 lung
[26] = tested on: NCI/ADR-RES ovarian
[27] = tested on: OVCAR-3 ovarian
[28] = tested on: OVCAR-4 ovarian
[29] = tested on: OVCAR-5 ovarian
[30] = tested on: OVCAR-8 ovarian
[31] = tested on: PC-3 prostate
[32] = tested on: RPMI-8226 leukemia
[33] = tested on: RXF 393 renal
[34] = tested on: SF-268 CNS
[35] = tested on: SF-539 CNS
[36] = tested on: SK-MEL-2 melanoma
[37] = tested on: SK-MEL-28 melanoma
[38] = tested on: SK-OV-3 ovarian
[39] = tested on: SN12C renal
[40] = tested on: SNB-19 CNS
[41] = tested on: SR leukemia
[42] = tested on: SW-620 colon
[43] = tested on: T-47D breast
[44] = tested on: TK-10 renal
[45] = tested on: UACC-257 melanoma
[46] = tested on: UACC-62 melanoma
[47] = tested on: UO-31 renal
[48] = tested on: 786-0 renal
[49] = tested on: CAKI-1 renal
[50] = tested on: HS 578T breast
[51] = tested on: LOX IMVI melanoma
[52] = tested on: MDA-MB-435
[53] = tested on: SF-295 CNS
[54] = tested on: SK-MEL-5 melanoma
[55] = tested on: SNB-75 CNS
[56] = tested on: U251 CNS

Cc1cc(O)c(=O)cc2c1C[C@H]1CC(C)(C)/C=C/C[C@]3(C)Oc4cc(=O)c(O)cc(C)c4C[C@H]3C[C@H](O)[C@@]1(C)O2
GI50 [1]: 25.9 nM | TGI [1]: 80.9 nM | GI50 [2]: 6.97 nM | TGI [2]: > 16700 nM | GI50 [3]: 6.01 nM | TGI [3]: 50.4 nM | GI50 [4]: 12.5 nM | TGI [4]: > 16700 nM | GI50 [5]: 10.1 nM | TGI [5]: > 16700 nM | GI50 [6]: 5.71 nM | TGI [6]: 25.8 nM | GI50 [7]: 5.61 nM | TGI [7]: > 16700 nM | GI50 [8]: 11 nM | GI50 [9]: 20.3 nM | TGI [9]: > 16700 nM | GI50 [10]: < 1.67 nM | TGI [10]: > 16700 nM | GI50 [11]: 2.81 nM | TGI [11]: > 16700 nM | GI50 [12]: 20.2 nM | TGI [12]: 128 nM | GI50 [13]: 5.72 nM | TGI [13]: 40.1 nM | GI50 [14]: 5.54 nM | TGI [14]: 112 nM | GI50 [15]: 3.1 nM | TGI [15]: > 16700 nM | GI50 [16]: 16.3 nM | TGI [16]: > 16700 nM | GI50 [17]: 7.17 nM | TGI [17]: > 16700 nM | GI50 [18]: 11.7 nM | TGI [18]: 140 nM | GI50 [19]: 6.36 nM | TGI [19]: 32 nM | GI50 [20]: 3.81 nM | TGI [20]: > 16700 nM | GI50 [21]: 19.9 nM | TGI [21]: > 16700 nM | GI50 [22]: 7.93 nM | TGI [22]: > 16700 nM | GI50 [23]: 24 nM | GI50 [24]: < 1.67 nM | TGI [24]: 17.3 nM | GI50 [25]: 7.68 nM | TGI [25]: 51.7 nM | GI50 [26]: 8.45 nM | GI50 [27]: 12 nM | TGI [27]: > 16700 nM | GI50 [28]: 12 nM | TGI [28]: > 16700 nM | GI50 [29]: 13.6 nM | TGI [29]: > 16700 nM | GI50 [30]: 6.1 nM | TGI [30]: > 16700 nM | GI50 [31]: 5.38 nM | TGI [31]: > 16700 nM | GI50 [32]: 8.31 nM | TGI [32]: > 16700 nM | GI50 [33]: 10.5 nM | TGI [33]: 142 nM | GI50 [34]: 7.71 nM | TGI [34]: > 16700 nM | GI50 [35]: 10.4 nM | TGI [35]: 71.4 nM | GI50 [36]: 8.83 nM | TGI [36]: 496 nM | GI50 [37]: 15.6 nM | TGI [37]: > 16700 nM | GI50 [38]: 10.1 nM | TGI [38]: 95.2 nM | GI50 [39]: 5.11 nM | TGI [39]: > 4910 nM | GI50 [40]: < 1.67 nM | TGI [40]: > 16700 nM | GI50 [41]: 14.9 nM | TGI [41]: > 16700 nM | GI50 [42]: 2.91 nM | TGI [42]: > 16700 nM | GI50 [43]: 2.52 nM | TGI [43]: 16.3 nM | GI50 [44]: 8.98 nM | GI50 [45]: 13.5 nM | TGI [45]: 84.1 nM | GI50 [46]: 27.2 nM | TGI [46]: 85.4 nM | GI50 [47]: 7.73 nM | TGI [47]: 53.2 nM

CCCCCCNC(=O)Oc1ccc(/C(=C(/C)c2ccc(OC)cc2)c2ccc(OCCN3CCCCCC3)cc2)cc1
GI50 [48]: 1680 nM | TGI [48]: 3100 nM | GI50 [1]: 7140 nM | TGI [1]: 20200 nM | GI50 [2]: 3560 nM | TGI [2]: 14400 nM | GI50 [3]: 3170 nM | TGI [3]: 10400 nM | GI50 [4]: 2660 nM | TGI [4]: 7940 nM | GI50 [49]: 3840 nM | TGI [49]: 15000 nM | GI50 [5]: 2620 nM | TGI [5]: > 100000 nM | GI50 [6]: 1880 nM | TGI [6]: 3540 nM | GI50 [7]: 8290 nM | TGI [7]: 23400 nM | GI50 [8]: 5150 nM | TGI [8]: 19200 nM | GI50 [9]: 2090 nM | TGI [9]: 4710 nM | GI50 [10]: 1520 nM | TGI [10]: 2850 nM | GI50 [11]: 1480 nM | TGI [11]: 3150 nM | GI50 [12]: 988 nM | TGI [12]: 3470 nM | GI50 [13]: 6700 nM | TGI [13]: 20700 nM | GI50 [14]: 2000 nM | TGI [14]: 6960 nM | GI50 [50]: 2750 nM | TGI [50]: 12300 nM | GI50 [15]: 1710 nM | TGI [15]: 4090 nM | GI50 [16]: 3660 nM | TGI [16]: 13600 nM | GI50 [17]: 10900 nM | TGI [17]: 24200 nM | GI50 [51]: 1450 nM | TGI [51]: 2760 nM | GI50 [18]: 1810 nM | TGI [18]: 3560 nM | GI50 [19]: 1770 nM | TGI [19]: 3440 nM | GI50 [20]: 377 nM | TGI [20]: 2580 nM | GI50 [21]: 1890 nM | TGI [21]: 3760 nM | GI50 [52]: 2110 nM | TGI [52]: 4710 nM | GI50 [22]: 2380 nM | TGI [22]: 7450 nM | GI50 [23]: 10300 nM | TGI [23]: 23600 nM | GI50 [24]: 1900 nM | TGI [24]: 3520 nM | GI50 [25]: 4120 nM | TGI [25]: 16200 nM | GI50 [26]: 2910 nM | TGI [26]: 11200 nM | GI50 [28]: 4600 nM | TGI [28]: 18500 nM | GI50 [29]: 7030 nM | TGI [29]: 20500 nM | GI50 [30]: 1960 nM | TGI [30]: 3990 nM | GI50 [31]: 3050 nM | TGI [31]: 11400 nM | GI50 [32]: 2210 nM | TGI [32]: 5470 nM | GI50 [33]: 1800 nM | TGI [33]: 3850 nM | GI50 [34]: 7360 nM | TGI [34]: 24000 nM | GI50 [53]: 1760 nM | TGI [53]: 3360 nM | GI50 [35]: 1670 nM | TGI [35]: 3100 nM | GI50 [36]: 2090 nM | TGI [36]: 4790 nM | GI50 [37]: 1860 nM | TGI [37]: 3730 nM | GI50 [54]: 1690 nM | TGI [54]: 3120 nM | GI50 [38]: 7570 nM | TGI [38]: 21200 nM | GI50 [39]: 1970 nM | TGI [39]: 4770 nM | GI50 [40]: 7290 nM | TGI [40]: 32100 nM | GI50 [55]: 5790 nM | TGI [55]: 22100 nM | GI50 [41]: 1320 nM | TGI [41]: 4600 nM | GI50 [42]: 2010 nM | TGI [42]: 4150 nM | GI50 [43]: 1390 nM | TGI [43]: 4010 nM | GI50 [44]: 17000 nM | TGI [44]: 31300 nM | GI50 [56]: 1720 nM | TGI [56]: 3330 nM | GI50 [45]: 2100 nM | TGI [45]: 5050 nM | GI50 [46]: 2210 nM | TGI [46]: 4970 nM | GI50 [47]: 2140 nM | TGI [47]: 6630 nM
